# ± gives the expanded uncertainty stated by the source.
# Tests used:
# [1] = Molar enthalpy of transition or fusion; settings: Crystal; DSC
# [2] = Crystal; DTA
Structure (SMILES),Molar enthalpy of transition or fusion [1],Normal melting temperature [2]
CCCCCCCCCCCCCCCC(=O)OCC [ethyl hexadecanoate],12.7 ± 4.78 kcal/mol,24.78 ± 2 °C
CCCCCCCCCCCCC1CCCCC1 [dodecylcyclohexane],10.8 ± 2.17 kcal/mol,13.63 ± 2 °C
CCCCCCCCCCCC(=O)OCC [ethyl dodecanoate],9.15 ± 1.84 kcal/mol,-0.92 ± 2 °C
